Where two headings read alike, the source gives them in different places. Where no end group is shown, it is not given here.
Key:
[1] = tested on: K. pneumoniae (ATCCBAA-1705); experiment: MIC, standard microtiter dilution (CLSI); type: cell-based, Klebsiella pneumoniae; conditions: broth microdilution (CLSI), CAMHB, 37 °C, 24 h
Description: (§1) Description of the characteristics and growth conditions of various bacterial strains used in the study are provided in the Supporting Information (Table S3). Antibacterial susceptibility testing was carried out using a standard microtiter dilution method recommended by the clinical and laboratory standard institute (CLSI) and measured as a minimum inhibitory concentration (MIC), the lowest peptide concentration that inhibited bacterial growth. Briefly, the overnight grown cultures in the recommended broth for each bacterial strain were diluted in cation-adjusted Mueller Hinton Broth (CAMHB) to give an inoculum of 10^6 colony-forming units (CFU)/mL. A 2-fold serially diluted test peptide solution (100 μL) was added to the microtiter plates. After adding bacterial suspension (100 μL), the plates were incubated at 37 °C for 24 h, and the MICs were determined. The same protocol was used to determine the MICs in the presence of salts and serum except using the media supplemented with various cationic salts (150 mM NaCl, 4.5 mM KCl, 6 mM NH4Cl, 1 mM MgCl2, and 2 mM CaCl2) or 25% FBS. The data was acquired from three independent assays performed in triplicate.
(§2) The bacterial strains employed in this study were obtained from the American Type Culture Collection (ATCC). Each strain was propagated as recommended by the ATCC, and each strain was stored as a frozen glycerol stock at -80°C. A bacterial colony was grown on the appropriate agar as indicated in Table S1 and was used to inoculate the appropriate broth. The culture was incubated at the appropriate conditions, as mentioned in Table S1. Following the incubation, the culture was diluted to an optical density 625 nm (OD625) of 0.1 in cation adjusted Mueller Hinton Broth (CAMHB), which is equivalent to 1 × 10^8 CFU/mL. The culture was further diluted to 1 × 10^6 CFU/mL, which was used to conduct the MIC determination assay. For the S. pneumoniae strains, CAMHB + 2.5% lysed horse blood was required for the assay. The strains with their […]
(§3) Table S3. Description of the characteristics and growth conditions of various bacterial strains

[2] = CD spectroscopy, helicity; type: physicochemical; parameters: key to Δ[θ]222 induced by TFE / Δ[θ]222 induced by Liposomes: mean residue molar ellipticity, mdeg cm2/(dmol × res); conditions: for [θ]222 mean residue molar ellipticity, TFE / [θ]222 mean residue molar ellipticity, Liposomes / [θ]222 mean residue molar ellipticity, PBS: CD at 222 nm, 25 °C; for [θ]222 mean residue molar ellipticity, TFE: aqueous buffer containing 50% TFE; for [θ]222 mean residue molar ellipticity, Liposomes / Δ[θ]222 induced by Liposomes: bacterial membrane mimicking liposomes; for [θ]222 mean residue molar ellipticity, Liposomes: peptide:lipid molar ratio 1:1.05; for [θ]222 mean residue molar ellipticity, PBS: phosphate buffer saline pH 7.0; for Δ[θ]222 induced by TFE / Δ[θ]222 induced by Liposomes: difference to PBS; for Δ[θ]222 induced by TFE: 50% TFE; for % of helicity induced by TFE: increase in molar ellipticity at 222 nm in the presence of 50% TFE; for % of helicity induced by Liposomes: increase in molar ellipticity at 222 nm in the presence of liposomes;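 on % of helicity induced by Liposomes: share of the total helicity with liposomes gained over the same peptide in PBS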;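 on % of helicity induced by TFE: share of the total helicity in TFE gained over the same peptide in PBS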
Description: The CD spectra of peptides were recorded using a Jasco J-1500 CD spectrophotometer (Jasco, Easton, MD) at 25 °C with a 1 mm path length cell. Wavelengths from 190 to 260 nm were scanned with 1.0 nm step resolution, 100 nm/min speed, 0.4 s response time, and 1 nm bandwidth. CD spectra of the peptides were collected and averaged over three scans in 10 mM sodium phosphate buffer (pH 7.2), helix-inducing solvent 50% TFE (v/v), and bacterial mimic liposomes (75 μM lipid). Spectra were corrected by subtracting a baseline spectrum containing only buffer or 50% TFE or liposomes. The mean residue molar ellipticity was calculated using the formula [drawing 3] where Ab222 is the absorbance observed at 222 nm, MRW is the mean residue molecular weight, C is the concentration in mg/mL, and L is the path length.
Table S1. RP-HPLC retention times and CD spectroscopy analysis of the selected peptides Peptide tR (min)a [θ]222b Δ[θ]222 induced by % of helicity inducedc by PBS TFE Liposomes TFE Liposomes TFE Liposomes […]
atR (min) denotes the retention time at 25°C by RP-HPLC. bThe mean residue molar ellipticity [θ] 222 (mdeg cm2/(dmol × res)) at 222 nm was measured at 25 °C in phosphate buffer saline (PBS, pH 7.0), in aqueous buﬀer containing 50% TFE (TFE), or in presence of bacterial membrane mimicking liposomes (peptide:lipid […]
c% helix induced is the increase in the molar ellipticity at 222 nm (in percentage) of a peptide in the presence of TFE or liposomes.

[3] = tested on: human red blood cells (hRBCs); experiment: Hemolytic assay; type: cell-based; conditions: 2 h, 37 °C
Description: The hemolytic activity of all peptides (1a–8d) was determined using hRBC. The assay was conducted by adding 75 μL of 2-fold serially diluted peptides to 75 μL of hRBC suspension (4% in PBS). The plates were incubated for 2 h at 37 °C without agitation. In order to determine the hemolysis at each tested concentration of peptides, the plate was centrifuged, and 100 μL of the supernatant was transferred to another 96-well plate to determine hemoglobin release spectrophotometrically at 567 nm. Percent hemolysis was calculated by the following formula [drawing 1] where A represents the absorbance of the peptide sample at 567 nm and A0 and At represent zero percent and 100% hemolysis determined in phosphate buffer saline and 1% Triton X-100, respectively.

E. coli (ATCC 25922) = conditions: broth microdilution (CLSI), CAMHB, 37 °C, 24 h
Description: as §1, §2, §3

MRSA (ATCC BAA-1556) = conditions: broth microdilution (CLSI), CAMHB, 37 °C, 24 h
Description: as §1, §2, §3

S. aureus (ATCC 29213) = experiment: MIC, standard microtiter dilution (CLSI); type: cell-based; conditions: broth microdilution (CLSI), CAMHB, 37 °C, 24 h
Description: as §1, §2, §3

[4] = tested on: P. aeruginosa (ATCC 27883); experiment: MIC, standard microtiter dilution (CLSI); type: cell-based, Pseudomonas aeruginosa; conditions: broth microdilution (CLSI), CAMHB, 37 °C, 24 h
Description: as §1, §2, §3

[5] = 10^6 CFU/mL, highest MIC of three independent experiments in triplicate
[6] = hRBC suspension 4% in PBS, hemoglobin release at 567 nm, 1% Triton X-100 = 100%
[7] = value in parentheses (μM), hRBC 4% in PBS, 567 nm

| Substance | MIC, K. pneumoniae (ATCCBAA-1705) [1, 5] [µg/mL] | MIC, K. pneumoniae (ATCCBAA-1705) ([1]; value in parentheses (μM)) [µM] | [θ]222 mean residue molar ellipticity, TFE [2] | [θ]222 mean residue molar ellipticity, Liposomes [2] | [θ]222 mean residue molar ellipticity, PBS [2] | Δ[θ]222 induced by TFE [2] | Δ[θ]222 induced by Liposomes [2] | % of helicity induced by TFE [2] [%] | % of helicity induced by Liposomes [2] [%] | HC50 (concentration at which 50% hemolysis was observed) [3, 6] [µg/mL] | HC50 (concentration at which 50% hemolysis was observed) [3, 7] [µM] | MIC, E. coli (ATCC 25922) (E. coli (ATCC 25922); [5]) [µg/mL] | MIC, E. coli (ATCC 25922) (E. coli (ATCC 25922); value in parentheses (μM)) [µM] | MIC, MRSA (ATCC BAA-1556) (MRSA (ATCC BAA-1556); [5]) [µg/mL] | MIC, MRSA (ATCC BAA-1556) (MRSA (ATCC BAA-1556); value in parentheses (μM)) [µM] | MIC, S. aureus (ATCC 29213) (S. aureus (ATCC 29213); [5]) [µg/mL] | MIC, S. aureus (ATCC 29213) (S. aureus (ATCC 29213); value in parentheses (μM)) [µM] | MIC, P. aeruginosa (ATCC 27883) [4, 5] [µg/mL] | MIC, P. aeruginosa (ATCC 27883) ([4]; value in parentheses (μM)) [µM] |
| --- | --- | --- | --- | --- | --- | --- | --- | --- | --- | --- | --- | --- | --- | --- | --- | --- | --- | --- | --- |
| RAWRAWWRRA-NH2 [4f] | > 100 | > 70.74 | -7441 mdeg cm2/(dmol × res) | -4470 mdeg cm2/(dmol × res) | -3665 mdeg cm2/(dmol × res) | -3775 | -805 | 50.73 | 18.01 | > 500 | > 353.69 | > 100 | > 70.74 | > 100 | > 70.74 | > 100 | > 70.74 | > 100 | > 70.74 |
| RWLRRWLRWWR-NH2 [5d] | 50 | 28.26 | -10148 mdeg cm2/(dmol × res) | -5800 mdeg cm2/(dmol × res) | -4099 mdeg cm2/(dmol × res) | -6048 | -1700 | 59.60 | 29.31 | 130 | 73.48 | 50 | 28.26 | 25 | 14.13 | 25 | 14.13 | 50 | 28.26 |
| RWWRRAWAR-NH2 [3e] | > 100 | > 74.48 | -8008 mdeg cm2/(dmol × res) | -4987 mdeg cm2/(dmol × res) | -4113 mdeg cm2/(dmol × res) | -3895 | -874 | 48.63 | 17.53 | > 500 | > 372.42 | > 100 | > 74.48 | > 100 | > 74.48 | > 100 | > 74.48 | > 100 | > 74.48 |
| RWWRRWAR-NH2 [2a] | > 100 | > 78.65 | -6217 mdeg cm2/(dmol × res) | -4556 mdeg cm2/(dmol × res) | -4051 mdeg cm2/(dmol × res) | -2165 | -505 | 34.83 | 11.08 | > 500 | > 393.23 | > 100 | > 78.65 | > 100 | > 78.65 | > 100 | > 78.65 | > 100 | > 78.65 |
| WRRWWRR-NH2 [1c] | > 100 | > 83.30 | -4646 mdeg cm2/(dmol × res) | -3092 mdeg cm2/(dmol × res) | -2638 mdeg cm2/(dmol × res) | -2008 | -454 | 43.22 | 14.68 | > 500 | > 416.52 | > 100 | > 83.30 | 100 | 83.30 | 100 | 83.30 | > 100 | > 83.30 |

Source: paper PMC9841524, “Structure-Based Rational Design of Small α-Helical Peptides with Broad-Spectrum Activity against Multidrug-Resistant Pathogens” (Journal of Medicinal Chemistry, 2022)
